In patent publication US10221426B2, “Constitutively active PYR/PYL receptor proteins for improving plant stress tolerance” (The Regents of the University of California, priority 2009, dated 2019):

Target: T1, PYL3-HAB1 (Arabidopsis thaliana, UniProt Q9SSM7)
T1 construct: BD-PYR/PYL fusion proteins were constructed in the same manner as for BD-PYR1 above; expressed in transfected cells; host or cells: yeast (Y190, as for BD-PYR1)
T1 sequence (Q9SSM7 1-209): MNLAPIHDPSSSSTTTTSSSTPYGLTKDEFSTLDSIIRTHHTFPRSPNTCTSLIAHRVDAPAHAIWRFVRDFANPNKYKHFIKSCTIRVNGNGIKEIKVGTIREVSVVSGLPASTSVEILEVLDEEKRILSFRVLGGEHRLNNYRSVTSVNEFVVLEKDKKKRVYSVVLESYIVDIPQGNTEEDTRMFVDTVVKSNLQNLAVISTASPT
T1 sequence (Q9CAJ0 23-511 partner): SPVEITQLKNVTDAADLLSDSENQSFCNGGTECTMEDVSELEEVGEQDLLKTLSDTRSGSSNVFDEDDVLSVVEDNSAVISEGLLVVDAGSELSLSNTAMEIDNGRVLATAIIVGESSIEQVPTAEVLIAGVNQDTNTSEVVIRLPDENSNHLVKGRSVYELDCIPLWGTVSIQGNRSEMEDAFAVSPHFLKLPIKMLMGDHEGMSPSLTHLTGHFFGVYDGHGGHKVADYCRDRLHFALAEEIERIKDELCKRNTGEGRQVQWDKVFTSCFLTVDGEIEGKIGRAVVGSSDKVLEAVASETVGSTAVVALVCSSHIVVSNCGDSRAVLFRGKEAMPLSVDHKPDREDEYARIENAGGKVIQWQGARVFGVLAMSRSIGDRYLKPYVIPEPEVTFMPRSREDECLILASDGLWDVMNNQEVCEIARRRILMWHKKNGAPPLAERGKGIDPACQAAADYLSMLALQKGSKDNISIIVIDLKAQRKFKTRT
Assay: Yeast two-hybrid BD-PYL3 / AD-HAB1 interaction
Format: cell-based
Settings: 10 μM
Protocol: Given that PYR1 is necessary for pyrabactin action and is a predicted ligand-binding protein, we hypothesized that pyrabactin agonizes ABA signaling by inducing a protein-protein interaction between PYR1 and a downstream effector. To test this, ˜2 million prey cDNA clones were screened against a PYR1 Y2H bait construct on media containing 10 μM pyrabactin. To create the PYR1 Y2H bait construct, the Pyr1 open reading frame was PCR amplified from genomic DNA and cloned to pGem-T easy vector (Promega). After sequence confirmation, the Pyr1 ORF was then cloned in-frame between EcoRI and SalI sites of the pBD-GAL4 Cam vector (Stratagene) and transformed into yeast strain Y190. For the screen, an etiolated seedling cDNA library (J. Kim, K., Harter, A., Theologis, Proc Natl Acad Sci USA 94, 11786 (Oct. 28, 1997)) (ABRC stock CD4-22) was used. The cDNA library was first converted from phage to plasmid DNA, yielding 7.6×10^7 transformants. Plasmid DNA prepared from library was then used to transform Y190 as described in the GAL4 Two-Hybrid system manual (Stratagene). For each screen, 40 μg of prey plasmid was transformed into 1 ml of competent Y190 cell harboring bait construct and then grown on SD agar plates lacking His, Leu, and Trp, but containing 15 mM 3-AT and 10 μM pyrabactin. After 4 days incubation at 30° C., well-grown colonies were rescued and interactions validated using filter lift assay or chloroform-agarose overlay method and X-Gal staining. This identified two pyrabactin-dependent hits which sequencing determined encoded cDNAs for the PP2C HAB1, a close relative of the well-characterized ABA response factor ABI1 (A. Saez et al., The Plant Journal 37, 354 (2004); N. Leonhardt et al., THE PLANT CELL 16, 596 (2004)). Next, Y2H strains expressing an AD-HAB1 fusion protein and a BD-PYR1 fusion protein were grown on plates and tested for interactions in response to various compounds, all at 10 μM except for epi-brassinolide (50 nM) and dimethyl sulfoxide (DMSO) (carrier solvent, 1%). […] Thus, PYR1 interacts with HAB1 in a (+)-ABA dependent fashion.
To see if ABA and pyrabactin responsiveness is unique to PYR1, we tested 11 of the 13 PYL proteins as described above, using Y2H strains expressing an AD-HAB1 fusion protein and a BD-PYR/PYL fusion protein (listed at the left of FIG. 3A). BD-PYR/PYL fusion proteins were constructed in the same manner as for BD-PYR1 above. […] Of these, only Pyr1 is highly transcribed in seeds, which likely explains why mutations in Pyr1 cause the seeds to be insensitive to pyrabactin. […] However the interactions of PYLs 5-12 with the PP2Cs are indicative that the entire protein family is likely to share a similar mechanism of action involving PP2C modulation, as we describe below. Thus, we conclude that entire family modulates ABA responses via PP2C interactions.
The yeast strains expressing PYR/PYL receptors and type 2 C protein phosphatases were also used to screen HPLC-fractionated plant extracts for the presence of endogenous compounds that activate PYL/PYL receptors PYR1, PYL2, PYL3, and/or PYL4. HPLC fractionation of extracts was used to identify compounds different from abscisic acid (the known agonist). […] Purification of the agonist was achieved via multiple rounds of chromatographic separation coupled to yeast two hybrid assays that informed the fractions to move forward at each step of the purification. The structure of the purified agonist was deduced by X-ray crystallography of crystalline purified agonist.

SMILES	PYL3-HAB1 interaction by X-gal stain
CC1=CC(=O)CC(C)(C)C1(O)/C=C/C(C)=C\C(=O)O (single isomer, unassigned; (+)) [(+)-ABA]	respond
O=S(=O)(NCc1ccccn1)c1ccc(Br)c2ccccc12 [pyrabactin]	promotes interactions
CC1=CC(=O)CC(C)(C)[C@@]1(O)/C=C/C(C)=C\C(=O)O [ABA, Abscisic acid]	interact with HAB1 in an ABA-stimulated manner
